The target in assay [1] is T1, Replicative DNA helicase DnaB (Mycobacterium tuberculosis, UniProt P9WMR3).
T1 sequence (P9WMR3 whole entry): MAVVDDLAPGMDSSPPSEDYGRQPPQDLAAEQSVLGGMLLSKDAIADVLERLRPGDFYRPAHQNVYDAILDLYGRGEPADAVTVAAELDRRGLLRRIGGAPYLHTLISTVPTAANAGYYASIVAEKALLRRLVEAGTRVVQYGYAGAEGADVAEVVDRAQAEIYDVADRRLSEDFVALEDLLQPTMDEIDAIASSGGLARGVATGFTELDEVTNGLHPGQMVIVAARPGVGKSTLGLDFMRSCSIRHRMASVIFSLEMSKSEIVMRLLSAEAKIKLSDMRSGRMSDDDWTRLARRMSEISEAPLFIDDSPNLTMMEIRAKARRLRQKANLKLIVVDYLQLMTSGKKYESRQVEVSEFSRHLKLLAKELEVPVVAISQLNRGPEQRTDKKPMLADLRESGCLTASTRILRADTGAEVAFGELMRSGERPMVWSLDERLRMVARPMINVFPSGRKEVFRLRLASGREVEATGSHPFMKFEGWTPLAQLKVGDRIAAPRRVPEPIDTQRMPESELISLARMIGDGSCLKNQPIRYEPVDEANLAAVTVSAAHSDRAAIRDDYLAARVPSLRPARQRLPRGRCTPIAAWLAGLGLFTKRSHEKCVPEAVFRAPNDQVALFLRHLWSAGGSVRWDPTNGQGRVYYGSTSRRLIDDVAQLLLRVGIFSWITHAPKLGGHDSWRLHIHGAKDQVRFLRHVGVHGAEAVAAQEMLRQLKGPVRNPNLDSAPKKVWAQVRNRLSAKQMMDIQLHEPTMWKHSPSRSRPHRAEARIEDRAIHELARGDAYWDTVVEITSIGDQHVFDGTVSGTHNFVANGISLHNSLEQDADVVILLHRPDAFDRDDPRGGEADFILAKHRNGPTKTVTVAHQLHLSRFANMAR
Nature of the assay: DnaB Intein secondary assay Measured in Biochemical System Using Plate Reader - 2047-04_Inhibitor_Dose_DryPowder_Activity. [Related pubchem assays (depositor defined):AID2223].

Assay [2] concerns the target T2, DNA repair and recombination protein RAD54-like (Homo sapiens, UniProt Q92698).
T2 sequence (Q92698 whole entry): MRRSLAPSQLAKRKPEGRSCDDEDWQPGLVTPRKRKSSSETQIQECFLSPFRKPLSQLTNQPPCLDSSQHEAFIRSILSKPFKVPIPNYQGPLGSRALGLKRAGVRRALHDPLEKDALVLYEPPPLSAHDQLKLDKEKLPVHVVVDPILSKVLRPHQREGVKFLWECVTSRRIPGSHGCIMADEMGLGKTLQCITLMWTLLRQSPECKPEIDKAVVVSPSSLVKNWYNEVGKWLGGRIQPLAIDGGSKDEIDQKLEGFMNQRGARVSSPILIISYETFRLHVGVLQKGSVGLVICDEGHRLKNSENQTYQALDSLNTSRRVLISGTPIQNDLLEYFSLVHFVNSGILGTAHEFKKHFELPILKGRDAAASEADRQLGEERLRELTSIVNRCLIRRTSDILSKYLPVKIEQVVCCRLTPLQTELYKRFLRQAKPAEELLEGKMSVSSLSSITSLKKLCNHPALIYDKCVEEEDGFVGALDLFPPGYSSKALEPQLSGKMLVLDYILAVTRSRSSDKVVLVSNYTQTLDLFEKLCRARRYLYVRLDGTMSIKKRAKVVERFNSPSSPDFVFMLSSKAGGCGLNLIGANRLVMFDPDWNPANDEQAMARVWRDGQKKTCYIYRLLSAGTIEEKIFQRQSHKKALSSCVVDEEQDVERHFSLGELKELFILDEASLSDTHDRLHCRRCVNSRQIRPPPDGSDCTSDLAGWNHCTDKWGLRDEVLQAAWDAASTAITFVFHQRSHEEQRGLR
The assay can be described thus: inhibitors of human RAD54 branch migration, confirmation, biochemical, fluorescence, cherry-picked samples, dose series (AID 651657). The assay is classed as functional.

Assay [3] can be described thus: Shn3 3'UTR reporter inhibitors, dose response, cell-based, Clone20 osteoblasts, firefly luciferase, cherry-picked (AID 624132).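 Further: firefly luciferase luminescence from reporter carrying the Shn3 3'UTR in osteoblasts.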 The assay is classed as functional.
The target in assay [4] is Dual specificity protein phosphatase 3 (Homo sapiens, UniProt P51452). The assay can be described thus: VHR1 phosphatase inhibitors, primary screen, biochemical, absorbance, uHTS (AID 1654).
Dual specificity protein phosphatase 3, sequence (P51452 whole entry): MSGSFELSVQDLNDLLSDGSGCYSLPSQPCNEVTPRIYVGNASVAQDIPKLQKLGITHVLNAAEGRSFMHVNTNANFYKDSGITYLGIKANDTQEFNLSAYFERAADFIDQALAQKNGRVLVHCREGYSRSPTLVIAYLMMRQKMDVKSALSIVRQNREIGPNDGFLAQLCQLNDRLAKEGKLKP
A short description of assay [5]: control 3'UTR Renilla luciferase suppression, dose response, counter-screen for Shn3 inhibitor project, cell-based, Clone20-Shn3RL, cherry-picked (AID 624133). The assay is classed as functional.
Assay [6] deals with Dual specificity protein phosphatase 6 (Rattus norvegicus, UniProt Q64346). The assay can be described thus: MKP-3 phosphatase inhibitors, primary screen, biochemical, rat enzyme, in vitro (AID 425).
Dual specificity protein phosphatase 6, sequence (Q64346 whole entry): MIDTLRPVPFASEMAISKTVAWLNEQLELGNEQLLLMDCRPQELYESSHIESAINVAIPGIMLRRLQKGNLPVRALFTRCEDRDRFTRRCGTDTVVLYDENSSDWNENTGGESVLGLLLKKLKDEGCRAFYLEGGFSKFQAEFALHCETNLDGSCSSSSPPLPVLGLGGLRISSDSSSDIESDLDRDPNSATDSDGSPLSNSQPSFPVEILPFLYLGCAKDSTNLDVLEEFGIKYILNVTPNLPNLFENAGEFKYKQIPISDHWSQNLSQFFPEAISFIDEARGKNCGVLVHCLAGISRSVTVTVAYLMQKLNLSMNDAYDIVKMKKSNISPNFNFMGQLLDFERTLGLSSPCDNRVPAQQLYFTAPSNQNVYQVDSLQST
Assay [7] concerns the target Peroxisome proliferator-activated receptor gamma/Nuclear receptor corepressor 2 (Homo sapiens, UniProt P37231+Q9Y618). Type of assay: functional.
Assay [8] is described as follows: inhibitors of PGC1a acetylation in cells, dose response, cell-based, cherry-picked samples (AID 720514).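 Further: potency may reflect raised or lowered acetylation signal.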 Type of assay: functional.
A short description of assay [9]: Counterscreen for AddAB inhibitors: absorbance-based bacterial cell-based high throughput dose response assay for inhibitors of bacterial viability. [Related pubchem assays (depositor defined):AID435030, AID449728, AID449731, AID488942, AID488955, AID488956]. Type of assay: functional.
The nature of assay [10]: miR-122 activators in hepatoma reporter cells, dose response, cell-based, Huh7 psiCHECK-miR122, Renilla luciferase, cherry-picked (AID 651956).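 Further: huh7 hepatoma cells stably carrying a psiCHECK-2 miR-122 sensor plasmid; renilla luciferase signal reporting endogenous miR-122 activity after 48 h compound exposure.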 The assay is classed as functional.
The subject of a further assay is BJ. Nature of the assay: cytotoxicity toward BJ-TERT fibroblasts, dose response, cell-based, RAS-independent, luminescence (AID 1933). The assay is classed as functional. The settings on record: Homo sapiens.
The subject of a further assay is Streptococcus. Nature of the assay: Group A Streptococcus viability loss, dose response, counter-screen for streptokinase expression inhibitor project, luminescence, BacTiterGlo (AID 1915).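 Further: potency for reduction of bacterial viability or growth.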 The assay is classed as functional, organism-based. For orientation: The purpose of a counterscreen is to sort out artefacts and off-target activity.
The nature of assay [11]: HEK293T cytotoxicity, dose response, cytotoxicity control for miR-122 modulator project, cell-based, inhibitor set, cherry-pick, set 2 (AID 720697). The assay is classed as functional.
For assay [12], the target named is T3, Calpain-2 catalytic subunit (Sus scrofa, UniProt P43367).
T3 sequence (P43367 whole entry): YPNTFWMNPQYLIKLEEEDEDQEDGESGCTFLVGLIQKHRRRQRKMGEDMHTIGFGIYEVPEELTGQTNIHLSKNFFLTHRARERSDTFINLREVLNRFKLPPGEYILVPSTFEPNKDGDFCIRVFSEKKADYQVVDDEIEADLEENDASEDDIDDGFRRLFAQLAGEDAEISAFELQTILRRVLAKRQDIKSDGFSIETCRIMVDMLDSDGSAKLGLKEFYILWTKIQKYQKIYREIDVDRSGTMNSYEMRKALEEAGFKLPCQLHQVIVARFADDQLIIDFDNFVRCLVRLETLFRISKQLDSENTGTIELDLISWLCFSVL
The assay can be described thus: pig calpain II inhibitor potency, dose response, biochemical, fluorogenic peptide substrate (AID 1420). The assay is classed as functional.

The next assay can be described thus: cells. Type of assay: functional, cell-based. The settings on record: HEK-CNG.
Assay [13] addresses Sphingosine 1-phosphate receptor 2 (Homo sapiens, UniProt O95136). Nature of the assay: Dose Response Cell Based Assay for Antagonists of the S1P2 Receptor. [Related pubchem assays: 856, 736 ]. Type of assay: functional.

What is called AC50 is the concentration giving half of the maximal activity seen. The IC50 is the concentration that inhibits the measured activity by half. One may read the EC50 as the concentration at which the effect is half-maximal.

The source made the active and inactive calls.

Sphingosine 1-phosphate receptor 2, sequence (O95136 whole entry): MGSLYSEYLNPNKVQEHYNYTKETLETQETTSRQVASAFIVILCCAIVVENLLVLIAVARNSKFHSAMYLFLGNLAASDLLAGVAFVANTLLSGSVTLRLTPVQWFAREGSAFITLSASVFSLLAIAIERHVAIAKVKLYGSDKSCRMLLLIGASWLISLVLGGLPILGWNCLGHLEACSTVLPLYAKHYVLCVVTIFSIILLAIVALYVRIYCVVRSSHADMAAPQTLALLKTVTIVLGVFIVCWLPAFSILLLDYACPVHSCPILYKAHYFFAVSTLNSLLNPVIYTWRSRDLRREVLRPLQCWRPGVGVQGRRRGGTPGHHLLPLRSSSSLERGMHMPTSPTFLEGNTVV
Peroxisome proliferator-activated receptor gamma/Nuclear receptor corepressor 2, sequence (P37231 whole entry): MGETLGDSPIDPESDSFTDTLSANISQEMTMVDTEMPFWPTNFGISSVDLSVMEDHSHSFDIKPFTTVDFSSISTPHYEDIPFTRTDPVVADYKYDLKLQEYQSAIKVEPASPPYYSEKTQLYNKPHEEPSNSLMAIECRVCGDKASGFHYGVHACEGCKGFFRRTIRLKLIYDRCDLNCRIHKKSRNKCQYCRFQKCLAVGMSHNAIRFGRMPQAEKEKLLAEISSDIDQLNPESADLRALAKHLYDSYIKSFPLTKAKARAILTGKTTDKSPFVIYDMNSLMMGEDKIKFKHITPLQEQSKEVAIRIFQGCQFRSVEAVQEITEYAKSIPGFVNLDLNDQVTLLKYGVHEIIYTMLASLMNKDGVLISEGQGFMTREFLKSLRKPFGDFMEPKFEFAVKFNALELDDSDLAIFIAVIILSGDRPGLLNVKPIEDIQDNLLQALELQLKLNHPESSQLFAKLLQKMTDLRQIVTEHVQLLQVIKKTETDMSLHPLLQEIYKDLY
Peroxisome proliferator-activated receptor gamma/Nuclear receptor corepressor 2, sequence (Q9Y618 whole entry): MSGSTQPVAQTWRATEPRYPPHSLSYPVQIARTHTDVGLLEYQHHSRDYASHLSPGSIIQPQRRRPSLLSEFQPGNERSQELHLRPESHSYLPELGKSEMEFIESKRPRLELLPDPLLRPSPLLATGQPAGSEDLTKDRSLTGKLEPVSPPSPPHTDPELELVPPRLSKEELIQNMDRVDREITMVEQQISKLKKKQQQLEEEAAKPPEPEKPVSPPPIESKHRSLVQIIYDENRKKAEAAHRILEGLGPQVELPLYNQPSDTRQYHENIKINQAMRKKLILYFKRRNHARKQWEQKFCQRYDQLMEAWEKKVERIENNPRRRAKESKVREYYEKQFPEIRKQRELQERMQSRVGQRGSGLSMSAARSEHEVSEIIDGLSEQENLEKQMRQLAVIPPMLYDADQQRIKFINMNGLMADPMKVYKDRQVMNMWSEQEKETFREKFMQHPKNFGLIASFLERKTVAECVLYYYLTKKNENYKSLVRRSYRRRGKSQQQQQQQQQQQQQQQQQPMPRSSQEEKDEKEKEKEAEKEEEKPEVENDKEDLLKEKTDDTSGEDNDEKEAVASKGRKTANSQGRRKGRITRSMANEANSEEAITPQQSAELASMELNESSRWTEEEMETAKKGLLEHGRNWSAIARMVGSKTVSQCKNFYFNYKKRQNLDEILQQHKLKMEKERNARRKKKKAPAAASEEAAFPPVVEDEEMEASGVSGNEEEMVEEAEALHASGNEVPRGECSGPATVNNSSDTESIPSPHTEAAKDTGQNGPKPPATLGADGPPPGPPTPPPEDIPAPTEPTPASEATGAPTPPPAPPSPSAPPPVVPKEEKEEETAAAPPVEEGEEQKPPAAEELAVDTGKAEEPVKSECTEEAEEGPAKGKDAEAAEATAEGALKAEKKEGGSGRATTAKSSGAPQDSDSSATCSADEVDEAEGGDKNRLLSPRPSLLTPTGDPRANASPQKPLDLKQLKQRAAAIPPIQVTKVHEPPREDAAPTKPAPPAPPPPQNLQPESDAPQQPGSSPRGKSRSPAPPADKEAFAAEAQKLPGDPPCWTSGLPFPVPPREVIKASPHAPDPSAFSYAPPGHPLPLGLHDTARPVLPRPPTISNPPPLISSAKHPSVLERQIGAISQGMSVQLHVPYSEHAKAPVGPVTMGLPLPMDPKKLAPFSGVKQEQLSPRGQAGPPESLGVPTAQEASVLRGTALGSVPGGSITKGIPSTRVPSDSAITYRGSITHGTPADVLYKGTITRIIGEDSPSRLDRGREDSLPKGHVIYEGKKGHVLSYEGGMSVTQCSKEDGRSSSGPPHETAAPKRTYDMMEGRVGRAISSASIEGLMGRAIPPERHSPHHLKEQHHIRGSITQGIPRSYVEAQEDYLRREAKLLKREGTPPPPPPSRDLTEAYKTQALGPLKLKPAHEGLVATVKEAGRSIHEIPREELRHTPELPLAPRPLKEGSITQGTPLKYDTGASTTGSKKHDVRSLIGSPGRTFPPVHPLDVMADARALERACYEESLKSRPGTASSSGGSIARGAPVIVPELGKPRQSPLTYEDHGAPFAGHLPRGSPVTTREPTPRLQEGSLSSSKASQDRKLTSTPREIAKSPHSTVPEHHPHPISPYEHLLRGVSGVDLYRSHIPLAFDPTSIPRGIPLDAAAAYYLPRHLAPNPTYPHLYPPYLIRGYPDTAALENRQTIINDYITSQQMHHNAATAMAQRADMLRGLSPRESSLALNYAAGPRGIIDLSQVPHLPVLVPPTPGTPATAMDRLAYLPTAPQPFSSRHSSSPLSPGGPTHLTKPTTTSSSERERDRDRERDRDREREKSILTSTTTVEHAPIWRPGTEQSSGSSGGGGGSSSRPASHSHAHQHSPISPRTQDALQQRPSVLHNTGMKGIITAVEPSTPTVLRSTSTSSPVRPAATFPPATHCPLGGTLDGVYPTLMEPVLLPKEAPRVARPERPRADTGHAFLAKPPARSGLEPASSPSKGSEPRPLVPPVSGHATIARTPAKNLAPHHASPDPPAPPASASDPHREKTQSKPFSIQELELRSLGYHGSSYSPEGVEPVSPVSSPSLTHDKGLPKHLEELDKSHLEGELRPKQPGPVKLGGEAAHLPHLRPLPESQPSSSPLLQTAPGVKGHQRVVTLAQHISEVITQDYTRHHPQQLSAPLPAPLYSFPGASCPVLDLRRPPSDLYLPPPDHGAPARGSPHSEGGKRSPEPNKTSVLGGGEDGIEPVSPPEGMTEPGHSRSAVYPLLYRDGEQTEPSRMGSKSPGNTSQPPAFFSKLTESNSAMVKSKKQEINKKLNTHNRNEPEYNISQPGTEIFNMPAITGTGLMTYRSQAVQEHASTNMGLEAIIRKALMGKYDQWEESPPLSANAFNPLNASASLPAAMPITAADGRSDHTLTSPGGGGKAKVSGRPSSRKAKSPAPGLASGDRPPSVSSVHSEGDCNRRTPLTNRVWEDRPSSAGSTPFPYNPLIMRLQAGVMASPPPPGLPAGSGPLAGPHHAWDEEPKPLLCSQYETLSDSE

`Cn1nc(-c2ccccn2)nc2c(=O)n(C)c(=O)nc1-2`: the concentration at half-maximal activity (AC50) in [1] was 503 nM (active); in [2], 1.22 µM (active); in assay [3], 493 nM (active); in assay [5], 2.96 µM (active); in assay [8], 3.15 µM (active). In addition, the results for the IC50 in assay [4], in [6] and in assay [7] were < 1.23 µM (inactive), < 1.23 µM (not active) and 4.69 µM (active), respectively.
As to `CCC(=O)NC(c1ccc(OC)cc1)c1cc(Cl)c2cccnc2c1O` (stereo unspecified), the IC50 in [9] was > 119 µM (inactive).
For the compound `CCCCCCCCCCn1c2c(c(=N)c3c1CCC3)CCC2`, the AC50 in assay [10] was 5.06 µM (active); in assay [11], 1.8 µM (active). Further, the EC50 with BJ was 3.26 µM (inconclusive); in the assay on Streptococcus it was 8.86 µM (active); in the assay “cells”, 15.8 µM (inactive). For the same compound, the IC50 in assay [12] is 6.72 µM (active); in [13], 2.94 µM (active).

The record behind these values is ChEMBL document CHEMBL1201862, “PubChem BioAssay data set” (2004).
